Experimental data: patent publication US10722587B2, “Composition for intracellular delivery containing adenovirus protein VI-derived peptide and anticancer pharmaceutical composition containing same” (priority 2015, dated 2020)

Tested on: Hela cell line
Assay: MTT assay, oncolytic capability and cytotoxicity
Assay type: cell-based, human
Settings: 4 days
Protocol: In this example, to confirm the adenoviral proliferation capability and oncolytic capability of Ad pDNA-polymer-peptide complexes, a complex was manufactured using polymer PAM-ABP and d pDNA containing viral DNA of H-Rd19-k35/DCN/shcMet, which is a tumor-selective oncolytic adenovirus expressing adenovirus DNA such as decorin (DCN) and shcMet. A human uterine cancer cell line, Hela cell line, was inoculated into a 12-well plate, and after 24 hours, treated with naked Ad pDNA, Ad pDNA/PAM-ABP, Ad pDNA/PAM-ABP/peptide complexes in which 6 types of peptides such as mVI, mVI-TAT, mVI-TAT-A, mVI-G-TAT-A, mVI-A-TAT and mVI-G-A-TAT were conjugated with Ad pDNA/PAM-ABP, and controls such as VI-9R and a complex with a TAT peptide. In addition, to verify cytotoxicity, the cells were treated with PAM-ABP or a peptide alone. Four days after the treatment, the culture solution was collected, and the number of adenovirus particles was detected using Q-PCR, and to verify oncolytic capability, 2 mg/ml of 3-(4,5-dimethylthiazol-2-yl)-2,5-diphenyl-tetrazolium bromide (MTT; Sigma Aldrich) in PBS was added at 200 μL to each well of the supernatant-removed plate, and cultured at 37° C. for 4 hours. Afterward, the supernatant was removed, the precipitate was dissolved in 1.0 ml dimethyl sulfoxide, the absorbance was analyzed by reading the plate at 540 nm on a microplate reader, and a non-treated cell group was classified as a negative control.

Structure (SMILES)	cytotoxicity of peptide alone
CC[C@H](C)[C@H](NC(=O)CNC(=O)[C@H](CO)NC(=O)[C@H](Cc1c[nH]c2ccccc12)NC(=O)[C@H](CC(C)C)NC(=O)[C@H](CO)NC(=O)CNC(=O)[C@H](Cc1c[nH]c2ccccc12)NC(=O)[C@H](CO)NC(=O)[C@H](Cc1ccccc1)NC(=O)[C@H](C)N)C(=O)N[C@@H](CCCCN)C(=O)N[C@@H](CC(N)=O)C(=O)N[C@@H](Cc1ccccc1)C(=O)NCC(=O)N[C@@H](Cc1ccccc1)C(=O)N[C@@H](CC(C)C)C(=O)NCC(=O)N[C@@H](CCCNC(=N)N)C(=O)N[C@@H](CCCCN)C(=O)N[C@@H](CCCCN)C(=O)N[C@@H](CCCNC(=N)N)C(=O)N[C@@H](CCCNC(=N)N)C(=O)N[C@@H](CCC(N)=O)C(=O)N[C@@H](CCCNC(=N)N)C(=O)N[C@@H](CCCNC(=N)N)C(=O)N[C@@H](CCCNC(=N)N)C(=O)N[C@@H](C)C(=O)N[C@@H](CC(C)C)C(=O)N[C@@H](C)C(=O)N[C@@H](CCC(=O)O)C(=O)O [mVI-G-TAT-A]	relatively high cytotoxicity
CC[C@H](C)[C@H](NC(=O)CNC(=O)[C@H](CO)NC(=O)[C@H](Cc1c[nH]c2ccccc12)NC(=O)[C@H](CC(C)C)NC(=O)[C@H](CO)NC(=O)CNC(=O)[C@H](Cc1c[nH]c2ccccc12)NC(=O)[C@H](CO)NC(=O)[C@H](Cc1ccccc1)NC(=O)[C@H](C)N)C(=O)N[C@@H](CCCCN)C(=O)N[C@@H](CC(N)=O)C(=O)N[C@@H](Cc1ccccc1)C(=O)NCC(=O)N[C@@H](Cc1ccccc1)C(=O)N[C@@H](CC(C)C)C(=O)NCC(=O)N[C@@H](C)C(=O)N[C@@H](CC(C)C)C(=O)N[C@@H](C)C(=O)N[C@@H](CCC(=O)O)C(=O)N[C@@H](CCCNC(=N)N)C(=O)N[C@@H](CCCCN)C(=O)N[C@@H](CCCCN)C(=O)N[C@@H](CCCNC(=N)N)C(=O)N[C@@H](CCCNC(=N)N)C(=O)N[C@@H](CCC(N)=O)C(=O)N[C@@H](CCCNC(=N)N)C(=O)N[C@@H](CCCNC(=N)N)C(=O)N[C@@H](CCCNC(=N)N)C(=O)O [mVI-G-A-TAT]	relatively high cytotoxicity
CC[C@H](C)[C@H](NC(=O)CNC(=O)[C@H](CO)NC(=O)[C@H](Cc1c[nH]c2ccccc12)NC(=O)[C@H](CC(C)C)NC(=O)[C@H](CO)NC(=O)CNC(=O)[C@H](Cc1c[nH]c2ccccc12)NC(=O)[C@H](CO)NC(=O)[C@H](Cc1ccccc1)NC(=O)[C@H](C)N)C(=O)N[C@@H](CCCCN)C(=O)N[C@@H](CC(N)=O)C(=O)N[C@@H](Cc1ccccc1)C(=O)NCC(=O)O [mVI]	relatively high cytotoxicity
CC[C@H](C)[C@H](NC(=O)CNC(=O)[C@H](CO)NC(=O)[C@H](Cc1c[nH]c2ccccc12)NC(=O)[C@H](CC(C)C)NC(=O)[C@H](CO)NC(=O)CNC(=O)[C@H](Cc1c[nH]c2ccccc12)NC(=O)[C@H](CO)NC(=O)[C@H](Cc1ccccc1)NC(=O)[C@H](C)N)C(=O)N[C@@H](CCCCN)C(=O)N[C@@H](CC(N)=O)C(=O)N[C@@H](Cc1ccccc1)C(=O)NCC(=O)N[C@@H](C)C(=O)N[C@@H](CC(C)C)C(=O)N[C@@H](C)C(=O)N[C@@H](CCC(=O)O)C(=O)N[C@@H](CCCNC(=N)N)C(=O)N[C@@H](CCCCN)C(=O)N[C@@H](CCCCN)C(=O)N[C@@H](CCCNC(=N)N)C(=O)N[C@@H](CCCNC(=N)N)C(=O)N[C@@H](CCC(N)=O)C(=O)N[C@@H](CCCNC(=N)N)C(=O)N[C@@H](CCCNC(=N)N)C(=O)N[C@@H](CCCNC(=N)N)C(=O)O [mVI-A-TAT]	relatively high cytotoxicity
CC[C@H](C)[C@H](NC(=O)CNC(=O)[C@H](CO)NC(=O)[C@H](Cc1c[nH]c2ccccc12)NC(=O)[C@H](CC(C)C)NC(=O)[C@H](CO)NC(=O)CNC(=O)[C@H](Cc1c[nH]c2ccccc12)NC(=O)[C@@H](N)CO)C(=O)N[C@@H](CCCCN)C(=O)N[C@@H](CC(N)=O)C(=O)N[C@@H](Cc1ccccc1)C(=O)NCC(=O)N[C@@H](CCCNC(=N)N)C(=O)N[C@@H](CCCNC(=N)N)C(=O)N[C@@H](CCCNC(=N)N)C(=O)N[C@@H](CCCNC(=N)N)C(=O)N[C@@H](CCCNC(=N)N)C(=O)N[C@@H](CCCNC(=N)N)C(=O)N[C@@H](CCCNC(=N)N)C(=O)N[C@@H](CCCNC(=N)N)C(=O)N[C@@H](CCCNC(=N)N)C(=O)O [VI-9R]	high cytotoxicity
